Measurements from patent US7550469B2, “Heterocyclic amide derivatives and their use as dopamine D3 receptor ligands” (Aventis Pharmaceuticals Inc., priority 2001, dated 2009).
Like-named read-outs stand apart in the source and are kept apart here.

Target: T1, cloned human dopamine D3 receptors (Homo sapiens, UniProt P35462)
T1 construct: expressed in transfected cells; membrane homogenate
Assay: [N-Methyl-3H]Spiroperidol binding to cloned human dopamine D3 receptors (Protocol 1)
How it was run: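 Membranes from CHO cells stably expressing cloned human D3 receptor were used for [N-methyl-3H]spiroperidol (60-90 Ci/mmol) binding. Assay buffer was 0.05 M Tris HCl pH 7.7 with 120 mM NaCl, 5 mM KCl, 2 mM CaCl2 and 1 mM MgCl2, optionally 0.1% ascorbic acid; total ligand concentration calculated from added CPM.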

[1] = the 13th table, unit inferred, read-out: D3Ki
[2] = the 23rd table, read-out: D3 Ki
[3] = the 14th table, read-out: D3 Ki
[4] = the 19th table, read-out: D3 Ki
[5] = the 24th table, read-out: D3 Ki
[6] = the 21st table, read-out: D3 Ki
[7] = the 18th table, read-out: D3 Ki
[8] = the 16th table, read-out: D3 Ki
[9] = the 15th table, read-out: D3 Ki

T1 sequence (P35462 whole entry): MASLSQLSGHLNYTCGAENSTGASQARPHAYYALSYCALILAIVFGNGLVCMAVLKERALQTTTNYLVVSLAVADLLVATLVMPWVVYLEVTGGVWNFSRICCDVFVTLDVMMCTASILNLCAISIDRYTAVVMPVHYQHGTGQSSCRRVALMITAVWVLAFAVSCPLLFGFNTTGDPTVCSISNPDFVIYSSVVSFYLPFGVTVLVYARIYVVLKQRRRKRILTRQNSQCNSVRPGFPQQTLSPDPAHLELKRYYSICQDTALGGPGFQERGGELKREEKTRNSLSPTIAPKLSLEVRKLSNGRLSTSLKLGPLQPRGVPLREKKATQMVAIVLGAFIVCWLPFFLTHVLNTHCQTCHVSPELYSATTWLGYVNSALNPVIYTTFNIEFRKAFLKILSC

Compound `O=C(NCCCCN1CCCN(c2csc3cc(F)ccc23)CC1)c1ccc2c(c1)S(=O)(=O)c1ccccc1C2=O` [S982539] has a Ki [1] of 0.8 nM.
Compound `CC[C@H]1CC[C@H](NC[C@@H]2C[C@H]2CN2CCN(c3ccccc3C)CC2)CC1` [compound 831876] has a Ki [2] of 12 nM.
In the case of `O=C(NCCCCN1CCCN(c2csc3cc(F)ccc23)CC1)c1cc([N+](=O)[O-])cc([N+](=O)[O-])c1` [S982535], the Ki [1] is reported as 5.3 nM.
`O=C(NCCCCCN1CCCN(c2csc3cc(F)ccc23)CC1)c1ccc2ccccc2c1` [S984490] gave a Ki [1] of 15.5 nM.
`OC(CCN1CCC(c2noc3ccsc23)CC1)CN1CCN(c2ccccc2)CC1` (stereo not shown) [compound 831943] gave a Ki (the 26th table, read-out: D3 Ki) of 264 nM.
`O=C(NCCCCCN1CCCN(c2csc3cc(F)ccc23)CC1)c1cccc(F)c1` [S984493] showed a Ki [1] of 25.9 nM.
`O=C(NCCCCCN1CCN(c2csc3cc(F)ccc23)CC1)c1c[nH]c2ccccc12` [compound 826787] was tested, and the Ki [3] was 1.19 nM.
`O=C(NCCC(CO)CN1CCN(c2csc3cc(C(F)(F)F)ccc23)CC1)c1ccc2ccccc2c1` (stereo not shown) [818619ES] gave a Ki (Table 2, read-out: D3K1) of 324 nM.
In the case of `O=C(NCC1CC1CN1CCC(c2noc3ccsc23)CC1)Oc1ccccc1` (stereo not shown) [compound 831699], the Ki (D3 Ki (nM), the 25th table) is reported as 3.04 nM.
With `COc1cccc(C(=O)Nc2cccc(CN3CCN(c4csc5cc(F)ccc45)CC3)c2)c1` [compound 822181] the Ki [4] was 332 nM.
In the case of `C[C@H]1CC[C@H](NC[C@@H]2C[C@H]2CN2CCN(c3csc4cc(C(F)(F)F)ccc34)CC2)CC1` [compound 832209], the Ki [2] is reported as 13.5 nM.
`CC(C)S(=O)(=O)NCC1CC1CN1CCC(c2noc3ccsc23)CC1` (stereo not shown) [compound 831366] was tested, and the Ki [5] was 113 nM.
With `COc1ccc2[nH]c(C(=O)NCCCCN3[C@H](C)CN(c4csc5cc(C(F)(F)F)ccc45)C[C@@H]3C)cc2c1` [compound 826951] the Ki [6] was 41.3 nM.
`O=C(NCCCCCN1CCN(c2csc3cc(C(F)(F)F)ccc23)CC1)c1cccs1` [compound 826764] showed a Ki (read-out: D3K1) of 7.8 nM and a Ki [3] of 7.8 nM.
`O=C(NC/C=C\CN1CCN(c2csc3cc(C(F)(F)F)ccc23)CC1)c1cccc(C(F)(F)F)c1` [compound 826346] showed a Ki (read-out: D3K1) of 170 nM.
`O=C(NCc1sccc1CN1CCN(c2csc3cc(F)ccc23)CC1)c1ccc2cc[nH]c2c1` [compound 826328] gave a Ki [7] of 28 nM.
With `O=C(NCCCN1CCCN(c2csc3cc(F)ccc23)CC1)c1cc2ccccc2s1` [compound 827143] the Ki (Table 2, read-out: D3K1) was 123 nM and the Ki [8] was 123 nM.
In the case of `C[C@@H]1CN(c2csc3cc(F)ccc23)C[C@H](C)N1CCCCNC(=O)c1cccc(C(F)(F)F)c1` [compound 827052], the Ki [6] is reported as 153 nM.
In the case of `O=C(NCCCCCN1CCC(c2noc3ccsc23)CC1)c1ccccc1` [compound 816212], the Ki [1] is reported as 570 nM.
In the case of `O=C(NCCCCN1C2CCC1CC(c1noc3cc(F)ccc13)C2)c1cccc(F)c1F` (stereo not shown) [compound 816329], the Ki [9] is reported as 356 nM.
`Cc1ccccc1C(=O)Nc1ccc(CN2CCN(c3csc4cc(F)ccc34)CC2)cc1` [compound 822212] gave a Ki [4] of 162 nM.
`O=C(NCCCCN1CCCN(c2csc3cc(F)ccc23)CC1)c1cc(C(F)(F)F)cc(C(F)(F)F)c1` [S981844] showed a Ki [1] of 39 nM.
For `COc1cccc2cc(C(=O)NCCCCN3CCCN(c4csc5cc(F)ccc45)CC3)oc12` [compound 827121], the Ki (Table 2, read-out: D3K1) was 21.6 nM and the Ki [8] was 21.6 nM.
Work on `C[C@@H]1CN(c2csc3cc(C(F)(F)F)ccc23)C[C@H](C)N1CCCCNC(=O)c1c[nH]c2ccccc12` [compound 826952] yielded a Ki [6] of 164 nM.
Compound `CCn1cc(C(=O)N[C@@H](CO)CCCN2CCN(c3csc4cc(C(F)(F)F)ccc34)CC2)c(=O)c2ccc(C)nc21` [compound 815680] has a Ki (Table 2, read-out: D3K1) of 197 nM, a Ki (read-out: D3K1) of 197 nM and a Ki [3] of 197 nM.
`O=C(NCCCCN1CCCN(c2csc3cc(F)ccc23)CC1)c1c[nH]cn1` [S977830] showed a Ki [1] of 5.8 nM.
In the case of `Cc1ccccc1C(=O)NCCCCN1CCCN(c2csc3cc(C(F)(F)F)ccc23)CC1` [S980639], the Ki [1] is reported as 40 nM.
Work on `C=CCCCCCCC(=O)NCCCCCN1CCC(c2noc3ccsc23)CC1` [compound 816203] yielded a Ki [1] of 94.1 nM.
Work on `O=C(NCc1sccc1CN1CCN(c2csc3cc(F)ccc23)CC1)c1csc(-c2cccnc2)n1` [compound 826316] yielded a Ki [7] of 32 nM.
`O=C(NC/C=C/CN1CCN(c2csc3cc(C(F)(F)F)ccc23)CC1)c1cccnc1` [compound 827714] was tested, and the Ki (read-out: D3K1) was 43 nM.
For `COc1ccc2[nH]c(C(=O)NCCCCN3[C@H](C)CN(c4csc5cc(F)ccc45)C[C@@H]3C)cc2c1` [compound 826960], the Ki [6] was 15.3 nM.
With `COc1ccc(C(=O)NCCCCN2CCCN(c3csc4cc(C(F)(F)F)ccc34)CC2)cc1OC` [S980638] the Ki [1] was 39 nM.
Work on `COc1cccc(C(=O)NCCCCN2[C@H](C)CN(c3csc4cc(C(F)(F)F)ccc34)C[C@@H]2C)c1` [compound 826932] yielded a Ki [6] of 384 nM.
For `COc1ccc2cc(C(=O)NCCCCN3CCCN(c4csc5cc(C(F)(F)F)ccc45)CC3)[nH]c2c1` [S980647], the Ki [1] was 17 nM.
`CS(=O)(=O)c1sc(C(=O)NCCCCCN2CCCN(c3csc4cc(F)ccc34)CC2)c2c1CCC=C2` [S984496] was tested, and the Ki [1] was 8.44 nM.
`O=C(NCCCCN1CCN(c2nn(C(=O)c3ccc(F)cc3)c3ccsc23)CC1)c1ccc(F)cc1` [compound 825148] gave a Ki (the 22nd table, read-out: D3 Ki) of 36.4 nM.
`O=C(NCCCCCN1CCCN(c2csc3cc(F)ccc23)CC1)c1n[nH]c2ccccc12` [S984511] was tested, and the Ki [1] was 25.4 nM.
`COc1ccc2[nH]c(C(=O)NCCCCCN3CCN(c4csc5cc(C(F)(F)F)ccc45)CC3)cc2c1` [compound 826795] was tested, and the Ki (read-out: D3K1) was 13.9 nM and the Ki [3] was 13.9 nM.
For `O=C(NCCCCN1CCN(c2c(Cl)sc3cc(F)ccc23)CC1)c1ccco1` [compound 815068], the Ki (read-out: D3K1) was 4.9 nM.
For `O=C(NCCCCCN1CCC(c2noc3ccsc23)CC1)C(Cl)c1ccccc1` (stereo not shown) [compound 816204], the Ki [1] was 218 nM.
Compound `O=C(NCCCCN1CCN(c2csc3cc(C(F)(F)F)ccc23)CC1)c1cccs1` [compound 811708] has a Ki (read-out: D3K1) of 5.77 nM.
Compound `COc1cccc(C(=O)Nc2ccc(CN3CCN(c4csc5cc(F)ccc45)CC3)cc2)c1` [compound 822209] has a Ki [4] of 360 nM.
For `COc1ccc2[nH]c(C(=O)NCc3sccc3CN3CCN(c4csc5cc(F)ccc45)CC3)cc2c1` [compound 826323], the Ki [7] was 67 nM.
`C[C@@H]1CN(c2csc3cc(C(F)(F)F)ccc23)C[C@H](C)N1CCCCNC(=O)c1ccc2ccccc2c1` [compound 827042] was tested, and the Ki [6] was 112 nM.
`O=C(NCc1sccc1CN1CCN(c2csc3cc(F)ccc23)CC1)c1ccncc1` [compound 826312] gave a Ki [7] of 29 nM.
`O=C(NCCCCN1CCN(c2c(Cl)sc3cc(F)ccc23)CC1)c1ccc(Br)cc1` [compound 815063] gave a Ki (read-out: D3K1) of 6.3 nM.
Compound `O=C(NCCCCCN1CCCN(c2csc3cc(F)ccc23)CC1)c1cccc(Cl)c1` [S984486] has a Ki [1] of 31.5 nM.
Work on `O=C(NCCCCN1CCCN(c2csc3cc(C(F)(F)F)ccc23)CC1)c1ccc2cc[nH]c2c1` [S980652] yielded a Ki [1] of 16.8 nM.
`O=C(NCCCCN1CCCN(c2csc3cc(C(F)(F)F)ccc23)CC1)c1n[nH]c2ccccc12` [S980653] gave a Ki [1] of 61 nM.
Work on `O=C(NCCCCN1C2CCC1CC(c1noc3ccccc13)C2)c1ccc(Cl)cc1` (stereo not shown) [compound 816523] yielded a Ki [9] of 165 nM.
`CCCCCCc1ccc(C(=O)NCCCCN2C3CCC2CC(c2noc4cc(F)ccc24)C3)cc1` (stereo not shown) [compound 816345] showed a Ki [9] of 95.6 nM.
With `O=C(NCCCCCN1CCN(c2csc3cc(C(F)(F)F)ccc23)CC1)c1ccc(OC(F)(F)F)cc1` [compound 826767] the Ki (read-out: D3K1) was 14 nM and the Ki [3] was 14 nM.
For `COc1ccc(C(=O)NCCCCN2CCCN(c3csc4cc(F)ccc34)CC2)cc1OC` [compound 822196], the Ki [1] was 5 nM.
`COc1ccc(NC[C@@H]2C[C@H]2CN2CCN(c3csc4cc(C(F)(F)F)ccc34)CC2)cc1` [compound 832279] showed a Ki [2] of 57 nM.
`O=C(NCCCCN1CCCN(c2csc3cc(F)ccc23)CC1)c1ccc2c(c1)C(=O)c1ccccc1-2` [S982538] gave a Ki [1] of 0.51 nM.
With `COc1cccc(C(=O)NCCCCN2[C@H](C)CN(c3csc4cc(F)ccc34)C[C@@H]2C)c1` [compound 826942] the Ki [6] was 57.4 nM.
With `C[C@@H]1CN(c2csc3cc(C(F)(F)F)ccc23)C[C@H](C)N1CCCCNC(=O)c1ccc(F)cc1` [compound 826929] the Ki [6] was 217 nM.
`O=C(NCCCCCN1CCN(c2csc3cc(F)ccc23)CC1)c1cc2ccccc2s1` [compound 826783] gave a Ki [3] of 2.7 nM.
With `O=C(NC/C=C/CN1CCN(c2csc3cc(C(F)(F)F)ccc23)CC1)C1(c2ccccc2)CC1` [compound 827740] the Ki (Table 2, read-out: D3K1) was 397 nM.
Work on `C[C@@H]1CN(c2csc3cc(C(F)(F)F)ccc23)C[C@H](C)N1CCCCNC(=O)c1n[nH]c2ccccc12` [compound 826956] yielded a Ki [6] of 190 nM.
Work on `COc1cccc(CC(=O)NCCCCN2CCCN(c3csc4cc(F)ccc34)CC2)c1` [S982510] yielded a Ki [1] of 5.9 nM.
`O=C(NCCCCN1CCCN(c2csc3cc(F)ccc23)CC1)c1cc2cccc(F)c2o1` [compound 827120] showed a Ki (Table 2, read-out: D3K1) of 32.9 nM and a Ki [8] of 32.9 nM.
Work on `O=C(NCCCCN1CCCN(c2csc3cc(C(F)(F)F)ccc23)CC1)c1cccnc1Cl` [S980646] yielded a Ki [1] of 110 nM.
`COc1ccc(C(=O)NCCCCN2CCN(c3csc4cc(C(F)(F)F)ccc34)CC2)cc1OC` [compound 815550] gave a Ki (read-out: D3K1) of 6.9 nM.
For `O=S(=O)(NCC1CC1CN1CCC(c2noc3ccsc23)CC1)c1ccc(F)cc1` (stereo not shown) [compound 831363], the Ki [5] was 36.3 nM.
In the case of `O=C(NCCCCCN1CCN(c2csc3cc(C(F)(F)F)ccc23)CC1)c1cccc2[nH]ccc12` [compound 826798], the Ki (read-out: D3K1) is reported as 6.44 nM and the Ki [3] is reported as 6.44 nM.
`O=C(NCCCCN1C2CCC1CC(c1noc3cc(F)ccc13)C2)c1ccc(C(F)(F)F)cc1` (stereo not shown) [compound 816326] showed a Ki [9] of 223 nM.
With `O=C(NC/C=C/CN1CCN(c2csc3cc(C(F)(F)F)ccc23)CC1)c1cccc(C(F)(F)F)c1` [compound 827724] the Ki (read-out: D3K1) was 120 nM.
In the case of `O=S(=O)(NCC1CC1CN1CCC(c2noc3ccsc23)CC1)c1ccc(OC(F)(F)F)cc1` (stereo not shown) [compound 831513], the Ki [5] is reported as 65.5 nM.
In the case of `O=C(NCCCCN1C2CCC1CC(c1noc3ccccc13)C2)c1ccc(F)cc1` (stereo not shown) [compound 816520], the Ki [9] is reported as 292 nM.
